The text below walks through data of patent US7314747B1, “SMRT co-repressors, transcriptional co-repressors that interact with nuclear hormone receptors” (The Salk Institute for Biological Studies, priority 1995, dated 2008).

Experiment [1] has as its target T1, EcR interaction with E52 or SMRT (Drosophila melanogaster, UniProt P34021).
T1 construct: the region corresponding to amino acids 223-878 of EcRB1; expressed in transfected cells; host or cells: Y190 yeast cells
T1 sequence (P34021 223-878): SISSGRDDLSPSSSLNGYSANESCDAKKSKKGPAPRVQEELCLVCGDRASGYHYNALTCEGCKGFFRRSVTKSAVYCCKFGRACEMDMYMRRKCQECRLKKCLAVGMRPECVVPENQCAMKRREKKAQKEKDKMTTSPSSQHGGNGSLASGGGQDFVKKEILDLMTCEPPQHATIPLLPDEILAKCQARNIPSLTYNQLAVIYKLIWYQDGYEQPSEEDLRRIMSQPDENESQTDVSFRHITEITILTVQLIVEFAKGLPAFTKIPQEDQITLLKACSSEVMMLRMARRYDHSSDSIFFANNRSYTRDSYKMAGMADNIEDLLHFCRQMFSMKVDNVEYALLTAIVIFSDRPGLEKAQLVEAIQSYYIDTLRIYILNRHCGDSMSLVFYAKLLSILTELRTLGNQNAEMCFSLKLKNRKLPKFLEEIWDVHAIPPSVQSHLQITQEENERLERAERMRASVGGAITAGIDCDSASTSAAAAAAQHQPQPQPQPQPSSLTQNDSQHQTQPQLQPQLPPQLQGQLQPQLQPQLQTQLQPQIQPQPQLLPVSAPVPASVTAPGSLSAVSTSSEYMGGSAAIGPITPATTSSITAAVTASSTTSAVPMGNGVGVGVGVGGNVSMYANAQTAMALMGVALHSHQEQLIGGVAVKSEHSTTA
As to the kind of experiment: Yeast two-hybrid assay, E52-EcR or SMRT-EcR interaction. The conditions noted are these: 3 μM ligand. The class given is cell-based. Here is the method: Transformants were selected onto DO-Leu-Trp-His plates containing 40 mM 3-aminotriazole (Sigma) for 3-4 days. Surviving yeast colonies were picked as primary positives and restreaked on selection plates to isolate single clones. Activation domain plasmids were rescued from the selected positive transformants for further analysis. Each clone was evaluated by testing its potential interaction with several other nuclear receptors using the yeast two-hybrid assays. […] Quantitative liquid assay of β-galactosidase was performed on positive clones 16 hr after treating the yeast cells with no ligand, or with 3 μM ligand.

Experiment [2] concerns the target T2, EcR:USP complex with SMRTER ERID1/ERID2 (Drosophila melanogaster, UniProt P34021).
T2 construct: made in house; host or cells: EcR and USP: TNT (Promega) coupled transcription-translation; GST fusions: E. coli DH5
T2 sequence (P34021 1-878): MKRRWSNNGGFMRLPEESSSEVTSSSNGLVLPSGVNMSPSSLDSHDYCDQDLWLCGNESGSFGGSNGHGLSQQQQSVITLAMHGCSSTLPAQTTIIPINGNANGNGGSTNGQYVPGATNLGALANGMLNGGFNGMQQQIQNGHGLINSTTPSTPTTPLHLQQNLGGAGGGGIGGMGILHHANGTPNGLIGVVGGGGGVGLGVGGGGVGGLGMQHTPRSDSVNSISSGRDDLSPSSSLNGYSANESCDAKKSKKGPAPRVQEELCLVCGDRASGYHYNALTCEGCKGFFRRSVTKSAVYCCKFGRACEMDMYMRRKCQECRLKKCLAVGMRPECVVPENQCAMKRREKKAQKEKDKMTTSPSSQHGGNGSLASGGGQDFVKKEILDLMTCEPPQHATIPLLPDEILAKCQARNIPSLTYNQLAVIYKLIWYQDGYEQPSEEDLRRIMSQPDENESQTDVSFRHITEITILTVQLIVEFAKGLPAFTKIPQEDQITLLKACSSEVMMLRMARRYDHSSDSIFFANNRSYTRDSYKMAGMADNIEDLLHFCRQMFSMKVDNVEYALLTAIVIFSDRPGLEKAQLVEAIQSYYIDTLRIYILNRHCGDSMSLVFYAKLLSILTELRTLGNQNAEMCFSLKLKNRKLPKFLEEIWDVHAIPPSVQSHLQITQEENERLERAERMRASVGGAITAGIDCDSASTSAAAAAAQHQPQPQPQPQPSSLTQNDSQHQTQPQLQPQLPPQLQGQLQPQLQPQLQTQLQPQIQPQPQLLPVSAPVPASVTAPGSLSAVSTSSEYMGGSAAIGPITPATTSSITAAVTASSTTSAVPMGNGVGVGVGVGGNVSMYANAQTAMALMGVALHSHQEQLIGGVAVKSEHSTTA
T2 sequence (P20153 1-508 partner): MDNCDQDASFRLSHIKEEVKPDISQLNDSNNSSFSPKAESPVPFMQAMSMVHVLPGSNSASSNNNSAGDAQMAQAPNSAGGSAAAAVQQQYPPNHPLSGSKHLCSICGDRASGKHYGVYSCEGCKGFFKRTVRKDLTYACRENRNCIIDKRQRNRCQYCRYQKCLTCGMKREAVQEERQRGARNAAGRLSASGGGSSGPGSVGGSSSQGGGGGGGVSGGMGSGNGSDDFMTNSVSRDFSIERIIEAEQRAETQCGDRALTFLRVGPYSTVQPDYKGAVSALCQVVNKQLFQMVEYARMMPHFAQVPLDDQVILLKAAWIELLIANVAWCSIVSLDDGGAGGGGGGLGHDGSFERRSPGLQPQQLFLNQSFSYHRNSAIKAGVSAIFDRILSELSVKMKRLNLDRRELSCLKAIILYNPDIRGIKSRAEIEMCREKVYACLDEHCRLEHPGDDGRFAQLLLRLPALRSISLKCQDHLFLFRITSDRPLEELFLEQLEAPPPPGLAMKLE
As to the kind of experiment: In vitro GST pull-down of 35S-labeled EcR by GST-ERID1 / GST-ERID2. The conditions noted are these: 3 μM, when USP is present. The class given is binding. As for the experimental part:
Glutathione S-transferase fusion proteins, including GST-X, GST-ERID1 (amino acids 1698-2063 of SEQ ID NO:1), and GST-ERID2 (amino acids 2951-3038 of SEQ ID NO:1), were expressed in E. coli DH5 cells, and extracts were affinity purified by binding to glutathione Sepharose 4B beads. Bound proteins used as affinity matrices in pull-down experiments were first equilibrated with the binding buffer (20 mM HEPES [pH 7.9], 150 mM NaCl, 1 mM EDTA, 4 mM MgCl2, 1 mM DTT, 0.06% NP40, 10% Glycerol, 0.25 mM PMSF, 1 mg BSA). For pull-down assays using GST-ERID1 (amino acids 1698-2063 of SEQ ID NO:1) and GST-ERID2 (amino acids 2951-3038 of SEQ ID NO:1), additional hsp27EcRE (0.05 μg/ml) was added to the binding buffer. In this experiment, […] of 50% GST-protein beads slurry, containing approximately 1 μg of proteins, were incubated with 10 μl of 35S-methionine-labeled proteins in 300 μl of the binding buffer (with or without 3 μM of MurA as indicated) for 30 min at room temperature. After the incubation, beads were washed three times with the binding buffer (with or without ligand) and resuspended in SDS-PAGE sample buffer before loading. After electrophoresis, bound radio-labeled proteins were visualized by autoradiography. […]

Consider `CC(C)CC[C@@H](O)[C@](C)(O)[C@H]1CC[C@@]2(O)C3=CC(=O)[C@]4(O)C[C@@H](O)[C@@H](O)C[C@]4(C)[C@H]3[C@H](O)C[C@]12C` [Muristerone A], for which, in experiment [1], the “dissociation of the interaction between E52 and EcR by ligand” value is given as “not dissociated”; the “dissociation of the interaction between SMRT and EcR by ligand” value is “not dissociated”. Also, in experiment [2], the “effect of ligand on GST-ERID/EcR pull-down complex” value is on record as “disrupted”.
